Source: PubChem BioAssay AID218 (DTP/NCI, 2004)
Several values for one entry are separate records, joined by “and”; a condition that tells them apart may be missing. Equal entries are not always repeated.

Test system: C57BL/6 mice, Adenocarcinoma 755 sc, tumor weight T/C
Test: NCI In Vivo Anticancer Drug Screen. Data for tumor model Adenocarcinoma 755 (subcutaneous) in C57BL/6 mice
Conditions: endpoint: mean tumor weight, higher = larger tumour
Protocol: The antitumor activity of compounds was measured in mice bearing transplantable tumors. Survival or tumor size were measured and the results are expressed as the measurement made in the treated group (T) divided by the measurement made in the vehicle treated control group (C). The tumor model used in this assay is Adenocarcinoma 755 (subcutaneous) in C57BL/6 mice

[1] = dose: 50.0 mg/kg/injection, schedule: Q01DX011 (ip), vehicle: saline
[2] = dose: 100.0 mg/kg/injection, schedule: Q01DX011 (ip), vehicle: saline
[3] = dose: 125.0 mg/kg/injection, schedule: Q01DX011 (ip), vehicle: saline
[4] = dose: 200.0 mg/kg/injection, schedule: Q01DX011 (ip), vehicle: saline
[5] = dose: 20.0 mg/kg/injection, schedule: Q01DX011 (ip), vehicle: saline
[6] = dose: 40.0 mg/kg/injection, schedule: Q01DX011 (ip), vehicle: saline
[7] = dose: 25.0 mg/kg/injection, schedule: Q01DX011 (ip), vehicle: carboxymethylcellulose (CMC)
[8] = dose: 50.0 mg/kg/injection, schedule: Q01DX011 (ip), vehicle: carboxymethylcellulose (CMC)

Q: Which results are given for `NNC(=O)c1nsnc1NC(N)=O`?
A: T/C (dose: 6.0 mg/kg/injection, schedule: Q01DX011 (ip), vehicle: carboxymethylcellulose (CMC)): 109 % of control; T/C (dose: 11.0 mg/kg/injection, schedule: Q01DX011 (ip), vehicle: carboxymethylcellulose (CMC)): 107 % of control; T/C (dose: 22.0 mg/kg/injection, schedule: Q01DX011 (ip), vehicle: carboxymethylcellulose (CMC)): 99 % of control

Q: What does the source list for `Cc1ncc(CO)c(C)c1O`?
A: T/C (dose: 3.13 mg/kg/injection, schedule: Q01DX011 (ip), vehicle: saline): 88 % of control; T/C (dose: 6.25 mg/kg/injection, schedule: Q01DX011 (ip), vehicle: saline): 107 % of control; T/C (dose: 12.5 mg/kg/injection, schedule: Q01DX011 (ip), vehicle: saline): 98 % of control; T/C (dose: 25.0 mg/kg/injection, schedule: Q01DX011 (ip), vehicle: saline): 106 % of control; T/C [1]: 74 % of control and 88 % of control; T/C [2]: 84 % of control and 107 % of control; T/C [3]: 47 % of control; T/C (dose: 150.0 mg/kg/injection, schedule: Q01DX011 (ip), vehicle: saline): 56 % of control and 66 % of control; T/C [4]: 119 % of control

Q: `Clc1cc(N2CC2)nc(N2CC2)n1` was tested. Which T/C (dose: 5.0 mg/kg/injection, schedule: Q02DX006 (ip), vehicle: other) did it give?
A: 79 % of control

Q: What about the T/C (dose: 7.5 mg/kg/injection, schedule: Q02DX006 (ip), vehicle: other) of the same molecule?
A: 72 % of control

Q: And the T/C (dose: 10.0 mg/kg/injection, schedule: Q02DX006 (ip), vehicle: other)?
A: 18 % of control

Q: With `CS(=O)(=O)OCCCCCCCCCOS(C)(=O)=O` as the molecule, how does the T/C (dose: 0.25 mg/kg/injection, schedule: Q01DX011 (ip), vehicle: carboxymethylcellulose (CMC)) read?
A: 64 % of control

Q: What about the T/C (dose: 0.5 mg/kg/injection, schedule: Q01DX011 (ip), vehicle: carboxymethylcellulose (CMC)) of the same molecule?
A: 93 % of control

Q: And the T/C (dose: 1.0 mg/kg/injection, schedule: Q01DX011 (ip), vehicle: carboxymethylcellulose (CMC))?
A: 162 % of control

Q: What about the T/C (dose: 2.0 mg/kg/injection, schedule: Q01DX011 (ip), vehicle: carboxymethylcellulose (CMC)) of the same molecule?
A: 95 % of control

Q: What about the T/C (dose: 4.0 mg/kg/injection, schedule: Q01DX011 (ip), vehicle: carboxymethylcellulose (CMC)) of the same molecule?
A: 84 % of control

Q: What does the source list for `CNc1ncnc2c1cnn2C`?
A: T/C (dose: 2.0 mg/kg/injection, schedule: Q01DX011 (ip), vehicle: saline): 84 % of control; T/C (dose: 5.0 mg/kg/injection, schedule: Q01DX011 (ip), vehicle: saline): 89 % of control; T/C (dose: 10.0 mg/kg/injection, schedule: Q01DX011 (ip), vehicle: saline): 120 % of control; T/C [5]: 36 % of control

Q: Which results are given for `N=[N+]=CC(=O)OCC(N)C(=O)O` (stereo unspecified)?
A: T/C (dose: 4.0 mg/kg/injection, schedule: Q01DX011 (ip), vehicle: saline): 31 % of control; T/C (dose: 8.0 mg/kg/injection, schedule: Q01DX011 (ip), vehicle: saline): 46 % of control

Q: Which T/C [1] does the source give for `CCc1nc(N)nc(N)c1-c1ccc(Cl)cc1` here?
A: 67 % of control

Q: What does the source list for `Nc1nc2n[nH]nc2c(=O)[nH]1`?
A: T/C (dose: 37.5 mg/kg/injection, schedule: Q01DX007 (sc), vehicle: carboxymethylcellulose (CMC)): 51 % of control and 66 % of control; T/C (dose: 37.5 mg/kg/injection, schedule: Q01DX011 (ip), vehicle: saline): 10 % of control; T/C (dose: 37.5 mg/kg/injection, schedule: Q01DX011 (sc), vehicle: saline): 25 % of control; T/C (dose: 50.0 mg/kg/injection, schedule: Q01DX011 (sc), vehicle: saline): 16 % of control; T/C (dose: 50.0 mg/kg/injection, schedule: Q02DX006 (ip), vehicle: other): 57 % of control; T/C (dose: 60.0 mg/kg/injection, schedule: Q02DX006 (ip), vehicle: other): 64 % of control; T/C (dose: 75.0 mg/kg/injection, schedule: Q01DX011 (ip), vehicle: saline): 6 % of control; T/C (dose: 75.0 mg/kg/injection, schedule: Q01DX011 (sc), vehicle: saline): 4 % of control; T/C (dose: 100.0 mg/kg/injection, schedule: Q01DX007 (sc), vehicle: carboxymethylcellulose (CMC)): 5 % of control and 14 % of control

Q: Which T/C [1] does the source give for `NNc1nc2nc[nH]c2c(=O)[nH]1` here?
A: 35 % of control

Q: For `S=c1[nH]c(=S)c2[nH]cnc2[nH]1`, which T/C [2] is on record?
A: 13 % of control

Q: What about the T/C [4] of the same molecule?
A: 7 % of control

Q: For `Nc1[nH]c(=O)nc2c1ncn2C1OC(CO)C(O)C1O` (stereo unspecified), which T/C [5] is on record?
A: 100 % of control

Q: And the T/C (dose: 30.0 mg/kg/injection, schedule: Q01DX011 (ip), vehicle: saline)?
A: 42 % of control

Q: And the T/C [6]?
A: 58 % of control

Q: Which results are given for `O=[N+]([O-])c1ccc2c(c1)Cc1c-2cc(Br)c(O)c1Br`?
A: T/C (dose: 62.5 mg/kg/injection, schedule: Q01DX011 (ip), vehicle: saline): 60 % of control; T/C [3]: 58 % of control; T/C (dose: 250.0 mg/kg/injection, schedule: Q01DX011 (ip), vehicle: saline): 43 % of control; T/C (dose: 500.0 mg/kg/injection, schedule: Q01DX011 (ip), vehicle: saline): 33 % of control

Q: For `CCCCNc1nc(N)nc2nc[nH]c12`, which T/C (dose: 5.0 mg/kg/injection, schedule: Q01DX011 (ip), vehicle: carboxymethylcellulose (CMC)) is on record?
A: 106 % of control

Q: And the T/C (dose: 10.0 mg/kg/injection, schedule: Q01DX011 (ip), vehicle: carboxymethylcellulose (CMC))?
A: 104 % of control

Q: And the T/C [7]?
A: 123 % of control

Q: What about the T/C [8] of the same molecule?
A: 78 % of control

Q: And the T/C (dose: 100.0 mg/kg/injection, schedule: Q01DX011 (ip), vehicle: carboxymethylcellulose (CMC))?
A: 72 % of control

Q: What does the source list for `CCCCNc1ncnc2c1cnn2C`?
A: T/C [6]: 3 % of control; T/C [1]: 13 % of control

Q: Which T/C (dose: 3.1 mg/kg/injection, schedule: Q01DX011 (ip), vehicle: carboxymethylcellulose (CMC)) does the source give for `Cc1ccc(N2CCN(CCCN3CCN(c4ccc(Cl)cc4)CC3)CC2)cc1` here?
A: 93 % of control

Q: And the T/C (dose: 6.25 mg/kg/injection, schedule: Q01DX011 (ip), vehicle: carboxymethylcellulose (CMC))?
A: 83 % of control

Q: And the T/C (dose: 12.5 mg/kg/injection, schedule: Q01DX011 (ip), vehicle: carboxymethylcellulose (CMC))?
A: 90 % of control

Q: What about the T/C [7] of the same molecule?
A: 52 % of control

Q: And the T/C [8]?
A: 43 % of control

Q: Which results are given for `N=C(N)CCNC(=O)C1CCC(N)=N1` (stereo unspecified)?
A: T/C (dose: 4.0 mg/kg/injection, schedule: Q02DX006 (ip), vehicle: saline): 59 % of control; T/C (dose: 6.0 mg/kg/injection, schedule: Q02DX006 (ip), vehicle: saline): 29 % of control and 53 % of control; T/C (dose: 10.0 mg/kg/injection, schedule: Q02DX006 (ip), vehicle: saline): 44 % of control
